# Data reported in patent US11622988B2, “Method for reducing fat accumulation by using tetramethylisoscutellarein” (TCI CO., LTD., priority 2018, dated 2023).
# Tested on: mouse bone marrow stromal cell OP9
# Assay: Oil-red O staining of fat accumulation in differentiated OP9 cells
# Format: cell-based
# Details: 10 μg/mL, incubated 7-10 days, O.D. 510 nm
# Experimental: First, 8×10^4 mouse bone marrow stromal cell OP9 (ATCC® CRL-2749™) was seeded with 500 μL of pre-adipocyte expansion medium (supplemented with 90% minimum essential medium alpha medium (Gibco), […] (Gibco) and 1% penicillin/streptomycin (Gibco)) in a 24-well plate, and incubated at 37° C. for 7 days. Fresh differentiation medium (supplemented with 90% minimum essential medium alpha medium, 20% fetal bovine serum, and 1% penicillin/streptomycin) was replaced every three days. After 7 days, lipid droplet formation was observed using microscopy (ZEISS) to make sure the cells are fully differentiated.
# Thereafter, five groups of OP9 cells (i.e. an experimental group, three comparative groups (comparative group 1 to comparative group 3) and a control group) were prepared. […]
# The oil droplet was dissolved using 100% isopropanol, and the plate was put on shaker and incubation for 10 min. A volume of 100 μL was taken to 96-well plate for measuring the O.D ratio (510 nm) with the ELISA reader (BioTek).
# The statistical significance of the differences between each group was determined by Student's t-test in Microsoft Excel. […]
compound,measurement,value
COc1ccc(-c2cc(=O)c3c(OC)cc(OC)c(OC)c3o2)cc1 [tetramethylisoscutellarein],"oil red relative percentage, lower than the control group",28%
